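A five-concentration, 48-hour dose response in 96-well plates underlies each endpoint, interpolated linearly between surrounding concentrations. GI50: concentration for 50% inhibition of growth.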 Activity calls are given as the source filed them. Rule as the data show it: active = GI50 up to about 1.1 µM and inactive = higher.
How the values were obtained:
Assay in all cases: growth of human tumour cells (NCI), 48 h
[1] = test system: SK-MEL-5
[2] = test system: MDA-MB-435
[3] = test system: HT-29
[4] = test system: HOP-62
[5] = test system: SN12C
[6] = test system: SW-620
[7] = test system: MOLT-4
[8] = test system: A498
[9] = test system: SR
[10] = test system: BT-549
[11] = test system: K562
[12] = test system: SF-539
[13] = test system: HOP-92
[14] = test system: OVCAR-3
[15] = test system: A549
[16] = test system: KM12
[17] = test system: SK-MEL-2
[18] = test system: UO-31
[19] = test system: 786-0
[20] = test system: TK-10
[21] = test system: HCT-15
[22] = test system: T47D
[23] = test system: SK-OV-3
[24] = test system: SF-268
[25] = test system: UACC-257
[26] = test system: SNB-19
[27] = test system: SNB-75
[28] = test system: NCI-H226
[29] = test system: SF-295
[30] = test system: Hs-578T
[31] = test system: NCI-H23
[32] = test system: CCRF-CEM
[33] = test system: EKVX
[34] = test system: NCI-H460
[35] = test system: IGROV-1
[36] = test system: DU-145
[37] = test system: U-251
[38] = test system: MCF7
[39] = test system: M14
[40] = test system: PC-3
[41] = test system: SK-MEL-28
[42] = test system: Malme-3M
[43] = test system: ACHN
[44] = test system: OVCAR-5
[45] = test system: HL-60
[46] = test system: OVCAR-8
[47] = test system: RXF 393
[48] = test system: RPMI-8226
[49] = test system: LOX IMVI
[50] = test system: MDA-MB-231
[51] = test system: OVCAR-4
[52] = test system: COLO 205
[53] = test system: HCT-116
[54] = test system: UACC-62
[55] = test system: NCI/ADR-RES
[56] = test system: NCI-H522
[57] = test system: HCC 2998
[58] = test system: CAKI-1
[59] = test system: MDA-N

**Q.** What does the source list for `CCOC(=O)C1C=C1C(C)(C)O` (stereo unspecified)?
**A.** GI50 [1]: > 10 µM (inactive); GI50 [2]: > 10 µM (inactive); GI50 [3]: > 10 µM (inactive); GI50 [4]: > 10 µM (inactive); GI50 [5]: > 10 µM (inactive); GI50 [6]: > 10 µM (inactive); GI50 [7]: > 10 µM (inactive); GI50 [8]: > 10 µM (inactive); GI50 [9]: > 10 µM (inactive); GI50 [10]: > 10 µM (inactive); GI50 [11]: > 10 µM (inactive); GI50 [12]: > 10 µM (inactive); GI50 [13]: > 10 µM (inactive); GI50 [14]: > 10 µM (inactive); GI50 [15]: > 10 µM (inactive); GI50 [16]: > 10 µM (inactive); GI50 [17]: > 10 µM (inactive); GI50 [18]: > 10 µM (inactive); GI50 [19]: > 10 µM (inactive); GI50 [20]: > 10 µM (inactive); GI50 [21]: > 10 µM; GI50 [22]: 7.24 µM (inactive); GI50 [23]: > 10 µM (inactive); GI50 [24]: > 10 µM (inactive); GI50 [25]: > 10 µM (inactive); GI50 [26]: > 10 µM (inactive); GI50 [27]: > 10 µM (inactive); GI50 [28]: > 10 µM (inactive); GI50 [29]: > 10 µM (inactive); GI50 [30]: > 10 µM (inactive); GI50 [31]: > 10 µM (inactive); GI50 [32]: > 10 µM (inactive); GI50 [33]: > 10 µM (inactive); GI50 [34]: > 10 µM (inactive); GI50 [35]: > 10 µM (inactive); GI50 [36]: > 10 µM (inactive); GI50 [37]: > 10 µM (inactive); GI50 [38]: > 10 µM (inactive); GI50 [39]: > 10 µM (inactive); GI50 [40]: > 10 µM (inactive); GI50 [41]: > 10 µM (inactive); GI50 [42]: > 10 µM (inactive); GI50 [43]: > 10 µM (inactive); GI50 [44]: > 10 µM (inactive); GI50 [45]: > 10 µM (inactive); GI50 [46]: > 10 µM (inactive); GI50 [47]: > 10 µM (inactive); GI50 [48]: > 10 µM (inactive); GI50 [49]: > 10 µM (inactive)

**Q.** For `OCCc1ccsc1-c1sc(-c2cc(CCO)c(-c3sccc3CCO)s2)cc1CCO`, which GI50 [1] is on record?
**A.** Its GI50 is 15.6 µM (inactive).

**Q.** And the GI50 [50]?
**A.** Its GI50 is 12.2 µM (inactive).

**Q.** What about the GI50 [2] of the same compound?
**A.** Its GI50 is 17.7 µM (inactive).

**Q.** What about the GI50 [4] of the same compound?
**A.** Its GI50 is 14.5 µM (inactive).

**Q.** And the GI50 [51]?
**A.** Its GI50 is 15.6 µM (inactive).

**Q.** And the GI50 [5]?
**A.** Its GI50 is 21.3 µM (inactive).

**Q.** And the GI50 [6]?
**A.** The GI50 was 31.2 µM (inactive).

**Q.** What about the GI50 [7] of the same compound?
**A.** Its GI50 is 7.89 µM (inactive).

**Q.** And the GI50 [8]?
**A.** Its GI50 is 22.5 µM (inactive).

**Q.** And the GI50 [9]?
**A.** The GI50 was 20.7 µM (inactive).

**Q.** And the GI50 [10]?
**A.** Its GI50 is 6.11 µM (inactive).

**Q.** And the GI50 [11]?
**A.** Its GI50 is 7.94 µM (inactive).

**Q.** And the GI50 [52]?
**A.** Its GI50 is 11.6 µM (inactive).

**Q.** And the GI50 [13]?
**A.** Its GI50 is 11.6 µM (inactive).

**Q.** And the GI50 [14]?
**A.** Its GI50 is 18.1 µM (inactive).

**Q.** And the GI50 [15]?
**A.** Its GI50 is 29 µM (inactive).

**Q.** What about the GI50 [16] of the same compound?
**A.** The GI50 was 3.38 µM (inactive).

**Q.** And the GI50 [17]?
**A.** Its GI50 is 14.7 µM (inactive).

**Q.** What about the GI50 [53] of the same compound?
**A.** The GI50 was 16.6 µM (inactive).

**Q.** What about the GI50 [18] of the same compound?
**A.** Its GI50 is 12.4 µM (inactive).

**Q.** What about the GI50 [19] of the same compound?
**A.** Its GI50 is 12 µM (inactive).

**Q.** And the GI50 [20]?
**A.** Its GI50 is 19.5 µM (inactive).

**Q.** What about the GI50 [54] of the same compound?
**A.** The GI50 was 11.6 µM (inactive).

**Q.** And the GI50 [21]?
**A.** The GI50 was 12.4 µM.

**Q.** What about the GI50 [55] of the same compound?
**A.** The GI50 was 20.2 µM (inactive).

**Q.** And the GI50 [56]?
**A.** The GI50 was 12.2 µM (inactive).

**Q.** And the GI50 [23]?
**A.** Its GI50 is 17.5 µM (inactive).

**Q.** And the GI50 [24]?
**A.** Its GI50 is 5.42 µM (inactive).

**Q.** And the GI50 [25]?
**A.** Its GI50 is 17 µM (inactive).

**Q.** And the GI50 [26]?
**A.** The GI50 was 13.6 µM (inactive).

**Q.** What about the GI50 [29] of the same compound?
**A.** The GI50 was 15.1 µM (inactive).

**Q.** And the GI50 [57]?
**A.** The GI50 was 12.5 µM (inactive).

**Q.** And the GI50 [31]?
**A.** Its GI50 is 15.8 µM (inactive).

**Q.** What about the GI50 [32] of the same compound?
**A.** The GI50 was 16.4 µM (inactive).

**Q.** And the GI50 [33]?
**A.** Its GI50 is 17.1 µM (inactive).

**Q.** What about the GI50 [34] of the same compound?
**A.** The GI50 was 6.12 µM (inactive).

**Q.** And the GI50 [35]?
**A.** The GI50 was 15.7 µM (inactive).

**Q.** What about the GI50 [36] of the same compound?
**A.** Its GI50 is 15.5 µM (inactive).

**Q.** And the GI50 [37]?
**A.** Its GI50 is 12.7 µM (inactive).

**Q.** And the GI50 [38]?
**A.** Its GI50 is 15.7 µM (inactive).

**Q.** What about the GI50 [39] of the same compound?
**A.** Its GI50 is 11.3 µM (inactive).

**Q.** And the GI50 [40]?
**A.** The GI50 was 11.8 µM (inactive).

**Q.** And the GI50 [41]?
**A.** The GI50 was 18.5 µM (inactive).

**Q.** What about the GI50 [58] of the same compound?
**A.** The GI50 was 22.8 µM (inactive).

**Q.** And the GI50 [42]?
**A.** The GI50 was 11.1 µM (inactive).

**Q.** What about the GI50 [43] of the same compound?
**A.** The GI50 was 15.8 µM (inactive).

**Q.** And the GI50 [44]?
**A.** The GI50 was 17.1 µM (inactive).

**Q.** What about the GI50 [59] of the same compound?
**A.** Its GI50 is 21.6 µM (inactive).

**Q.** What about the GI50 [46] of the same compound?
**A.** Its GI50 is 15.7 µM (inactive).

**Q.** What about the GI50 [47] of the same compound?
**A.** Its GI50 is 2.77 µM (inactive).

**Q.** And the GI50 [48]?
**A.** Its GI50 is 5.05 µM (inactive).

**Q.** What about the GI50 [49] of the same compound?
**A.** The GI50 was 5.45 µM (inactive).

From ChEMBL document CHEMBL1201862, “PubChem BioAssay data set” (2004)
